Assay results published in ChEMBL document CHEMBL4138202, “Design, synthesis, biological evaluation and molecular modeling of novel 2-amino-4-(1-phenylethoxy) pyridine derivatives as potential ROS1 inhibitors” (Eur J Med Chem, 2018).
pIC50: −log10 of the molar value.

Tests used:
NCI-H3122 = test: Antiproliferative activity against human NCI-H3122 cells after 48 hrs by MTT assay; settings: NCI-H3122, 48 h
HCC78 = test: Antiproliferative activity against human HCC78 cells after 48 hrs by MTT assay; settings: HCC78, 48 h
[1] = molecular target: Proto-oncogene tyrosine-protein kinase ROS (Homo sapiens, UniProt P08922); test: Inhibition of recombinant human GST-tagged ROS1 expressed in baculovirus expression system by Z'LYTE assay
Sequence of Proto-oncogene tyrosine-protein kinase ROS (P08922 whole entry): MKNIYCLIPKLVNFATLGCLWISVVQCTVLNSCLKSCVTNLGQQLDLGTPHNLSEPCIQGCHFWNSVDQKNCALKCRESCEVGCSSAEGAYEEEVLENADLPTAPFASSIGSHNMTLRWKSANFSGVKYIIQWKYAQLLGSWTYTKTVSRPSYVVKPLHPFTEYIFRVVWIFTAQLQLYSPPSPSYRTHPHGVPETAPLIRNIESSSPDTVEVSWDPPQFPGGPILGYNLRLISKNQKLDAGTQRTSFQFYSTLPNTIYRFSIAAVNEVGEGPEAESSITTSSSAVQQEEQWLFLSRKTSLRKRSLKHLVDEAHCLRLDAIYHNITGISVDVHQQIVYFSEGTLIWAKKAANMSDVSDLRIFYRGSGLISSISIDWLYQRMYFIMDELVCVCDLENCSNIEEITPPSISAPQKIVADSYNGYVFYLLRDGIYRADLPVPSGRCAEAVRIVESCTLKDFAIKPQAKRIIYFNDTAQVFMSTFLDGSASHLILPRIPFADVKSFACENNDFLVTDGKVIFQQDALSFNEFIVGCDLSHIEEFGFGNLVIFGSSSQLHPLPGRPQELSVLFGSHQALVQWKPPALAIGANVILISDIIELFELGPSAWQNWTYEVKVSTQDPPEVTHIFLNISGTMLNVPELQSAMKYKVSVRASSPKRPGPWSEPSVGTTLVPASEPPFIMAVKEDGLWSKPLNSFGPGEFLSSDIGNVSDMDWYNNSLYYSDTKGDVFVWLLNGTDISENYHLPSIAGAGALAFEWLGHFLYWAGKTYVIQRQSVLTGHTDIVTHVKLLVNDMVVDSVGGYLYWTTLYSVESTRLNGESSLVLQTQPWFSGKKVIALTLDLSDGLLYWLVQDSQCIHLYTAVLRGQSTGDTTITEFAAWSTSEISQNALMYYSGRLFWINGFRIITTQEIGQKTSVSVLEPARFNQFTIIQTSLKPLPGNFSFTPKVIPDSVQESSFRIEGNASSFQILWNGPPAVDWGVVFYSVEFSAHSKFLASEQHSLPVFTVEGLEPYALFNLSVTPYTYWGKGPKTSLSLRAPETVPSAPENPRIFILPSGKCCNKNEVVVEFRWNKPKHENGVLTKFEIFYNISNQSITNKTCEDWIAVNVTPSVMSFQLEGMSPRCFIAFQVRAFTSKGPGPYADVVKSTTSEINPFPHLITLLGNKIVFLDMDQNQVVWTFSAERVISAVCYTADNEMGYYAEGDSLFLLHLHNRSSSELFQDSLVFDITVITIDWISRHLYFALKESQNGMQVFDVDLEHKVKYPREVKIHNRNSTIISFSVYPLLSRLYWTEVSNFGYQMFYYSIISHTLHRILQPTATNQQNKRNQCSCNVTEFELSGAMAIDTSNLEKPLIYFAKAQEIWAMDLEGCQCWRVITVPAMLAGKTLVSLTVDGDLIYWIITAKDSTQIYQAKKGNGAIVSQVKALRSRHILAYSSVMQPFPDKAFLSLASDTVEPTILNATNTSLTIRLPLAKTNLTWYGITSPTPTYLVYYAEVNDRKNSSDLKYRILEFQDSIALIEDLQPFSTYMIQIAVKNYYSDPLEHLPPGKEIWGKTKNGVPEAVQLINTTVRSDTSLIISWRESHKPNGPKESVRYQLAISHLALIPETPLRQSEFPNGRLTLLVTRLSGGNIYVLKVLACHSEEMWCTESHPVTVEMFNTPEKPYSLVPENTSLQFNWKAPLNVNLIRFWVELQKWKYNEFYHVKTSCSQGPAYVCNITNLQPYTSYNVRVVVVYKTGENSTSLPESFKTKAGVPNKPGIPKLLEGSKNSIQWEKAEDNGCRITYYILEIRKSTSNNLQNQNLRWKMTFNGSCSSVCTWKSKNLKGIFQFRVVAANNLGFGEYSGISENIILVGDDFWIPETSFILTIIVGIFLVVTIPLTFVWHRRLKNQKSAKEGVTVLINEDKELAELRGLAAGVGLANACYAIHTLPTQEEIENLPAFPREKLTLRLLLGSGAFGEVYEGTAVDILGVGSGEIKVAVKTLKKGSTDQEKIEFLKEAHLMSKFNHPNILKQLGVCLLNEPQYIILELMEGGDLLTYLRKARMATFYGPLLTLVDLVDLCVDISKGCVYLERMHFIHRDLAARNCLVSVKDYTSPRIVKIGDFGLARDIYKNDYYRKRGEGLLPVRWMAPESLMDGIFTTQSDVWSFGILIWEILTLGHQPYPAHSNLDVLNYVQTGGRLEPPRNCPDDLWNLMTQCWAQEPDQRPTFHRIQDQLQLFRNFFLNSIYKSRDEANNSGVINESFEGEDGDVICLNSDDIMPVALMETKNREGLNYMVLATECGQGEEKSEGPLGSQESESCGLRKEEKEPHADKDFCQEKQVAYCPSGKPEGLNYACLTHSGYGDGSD

[2] = molecular target: ALK tyrosine kinase receptor (Homo sapiens, UniProt Q9UM73); test: Inhibition of recombinant human GST-tagged ALK expressed in baculovirus expression system by Z'LYTE assay
Sequence of ALK tyrosine kinase receptor (Q9UM73 whole entry): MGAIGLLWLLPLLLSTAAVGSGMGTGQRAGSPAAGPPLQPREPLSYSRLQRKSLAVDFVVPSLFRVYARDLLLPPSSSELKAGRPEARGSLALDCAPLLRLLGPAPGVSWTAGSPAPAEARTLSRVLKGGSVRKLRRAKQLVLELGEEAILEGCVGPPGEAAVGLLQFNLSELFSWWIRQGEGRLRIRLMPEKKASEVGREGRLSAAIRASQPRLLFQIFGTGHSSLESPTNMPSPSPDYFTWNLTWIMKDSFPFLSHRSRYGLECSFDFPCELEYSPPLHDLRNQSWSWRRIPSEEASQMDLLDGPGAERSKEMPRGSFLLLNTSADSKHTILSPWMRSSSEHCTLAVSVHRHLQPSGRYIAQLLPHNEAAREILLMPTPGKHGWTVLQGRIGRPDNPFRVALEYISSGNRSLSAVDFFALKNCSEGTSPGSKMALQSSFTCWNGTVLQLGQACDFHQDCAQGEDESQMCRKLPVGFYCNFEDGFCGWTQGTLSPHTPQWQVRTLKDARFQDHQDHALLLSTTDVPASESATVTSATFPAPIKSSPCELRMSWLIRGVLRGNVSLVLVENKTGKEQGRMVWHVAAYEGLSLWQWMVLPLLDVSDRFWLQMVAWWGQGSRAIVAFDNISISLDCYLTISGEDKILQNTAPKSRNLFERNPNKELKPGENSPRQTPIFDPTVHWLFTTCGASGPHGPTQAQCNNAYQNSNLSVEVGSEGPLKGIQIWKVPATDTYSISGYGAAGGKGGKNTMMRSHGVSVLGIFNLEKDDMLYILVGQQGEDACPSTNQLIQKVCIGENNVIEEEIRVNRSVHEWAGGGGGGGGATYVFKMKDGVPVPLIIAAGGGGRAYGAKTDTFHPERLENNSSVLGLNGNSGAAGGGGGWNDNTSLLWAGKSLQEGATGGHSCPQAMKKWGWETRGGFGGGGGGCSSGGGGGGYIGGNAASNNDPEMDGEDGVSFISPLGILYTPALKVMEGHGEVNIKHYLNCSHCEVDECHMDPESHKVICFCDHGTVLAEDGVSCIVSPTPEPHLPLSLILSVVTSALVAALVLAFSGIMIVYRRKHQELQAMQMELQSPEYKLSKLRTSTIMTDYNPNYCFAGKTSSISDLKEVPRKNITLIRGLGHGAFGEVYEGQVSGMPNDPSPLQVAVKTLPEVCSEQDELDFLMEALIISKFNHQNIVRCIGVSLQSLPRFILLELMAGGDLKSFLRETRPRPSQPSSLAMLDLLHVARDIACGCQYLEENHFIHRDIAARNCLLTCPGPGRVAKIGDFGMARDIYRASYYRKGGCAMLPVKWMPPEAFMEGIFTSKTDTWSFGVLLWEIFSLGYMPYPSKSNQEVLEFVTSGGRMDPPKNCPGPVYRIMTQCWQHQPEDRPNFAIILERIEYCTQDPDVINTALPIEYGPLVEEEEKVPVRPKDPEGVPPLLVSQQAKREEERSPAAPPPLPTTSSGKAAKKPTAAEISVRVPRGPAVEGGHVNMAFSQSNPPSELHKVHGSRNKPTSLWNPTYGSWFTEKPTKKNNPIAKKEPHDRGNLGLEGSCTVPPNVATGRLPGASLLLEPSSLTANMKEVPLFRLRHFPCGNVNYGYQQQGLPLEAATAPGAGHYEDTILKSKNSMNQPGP

[3] = molecular target: Tyrosine-protein kinase ABL1 (Homo sapiens) (UniProt P00519); test: Inhibition of recombinant human His-tagged ABL1 expressed in baculovirus expression system at 1 uM by Z'LYTE assay relative to control
[4] = molecular target: Epidermal growth factor receptor (Homo sapiens) (UniProt P00533); test: Inhibition of recombinant human GST-tagged EGFR expressed in baculovirus expression system at 1 uM by Z'LYTE assay relative to control
[5] = molecular target: Hepatocyte growth factor receptor (Homo sapiens) (UniProt P08581); test: Inhibition of recombinant human His-tagged MET expressed in mammalian expression system at 1 uM by Z'LYTE assay relative to control
[6] = molecular target: Mitogen-activated protein kinase 3 (Homo sapiens) (UniProt P27361); test: Inhibition of recombinant human GST-tagged full length MAPK3 expressed in Escherichia coli at 1 uM by Z'LYTE assay relative to control
[7] = molecular target: Platelet-derived growth factor receptor alpha (Homo sapiens) (UniProt P16234); test: Inhibition of recombinant human GST-tagged PDGFRalpha expressed in baculovirus expression system at 1 uM by Z'LYTE assay relative to control
[8] = molecular target: Fibroblast growth factor receptor 1 (Homo sapiens) (UniProt P11362); test: Inhibition of recombinant human His-tagged FGFR1 expressed in baculovirus expression system at 1 uM by Z'LYTE assay relative to control
[9] = molecular target: Leukocyte tyrosine kinase receptor (Homo sapiens) (UniProt P29376); test: Inhibition of recombinant human GST-tagged LTK expressed in baculovirus expression system at 1 uM by Z'LYTE assay relative to control
[10] = molecular target: Mast/stem cell growth factor receptor Kit (Homo sapiens) (UniProt P10721); test: Inhibition of KIT (unknown origin) at 1 uM by Z'LYTE assay relative to control
[11] = molecular target: Insulin-like growth factor 1 receptor (Homo sapiens) (UniProt P08069); test: Inhibition of recombinant human His-tagged IGF1R expressed in baculovirus expression system at 1 uM by Z'LYTE assay relative to control
[12] = molecular target: CDK2/Cyclin A2 (Homo sapiens) (UniProt P24941+P20248); test: Inhibition of recombinant human full length His-tagged CDK2/cyclin A expressed in baculovirus expression system at 1 uM by Z'LYTE assay relative to control
[13] = molecular target: Serine/threonine-protein kinase B-raf (Homo sapiens) (UniProt P15056); test: Inhibition of recombinant human full length GST-tagged BRAF expressed in baculovirus expression system at 1 uM by Z'LYTE assay relative to control
[14] = molecular target: Tyrosine-protein kinase JAK2 (Homo sapiens) (UniProt O60674); test: Inhibition of recombinant human GST-tagged JAK2 expressed in baculovirus expression system at 1 uM by Z'LYTE assay relative to control
Sequence of Tyrosine-protein kinase JAK2 (Homo sapiens) (O60674 whole entry): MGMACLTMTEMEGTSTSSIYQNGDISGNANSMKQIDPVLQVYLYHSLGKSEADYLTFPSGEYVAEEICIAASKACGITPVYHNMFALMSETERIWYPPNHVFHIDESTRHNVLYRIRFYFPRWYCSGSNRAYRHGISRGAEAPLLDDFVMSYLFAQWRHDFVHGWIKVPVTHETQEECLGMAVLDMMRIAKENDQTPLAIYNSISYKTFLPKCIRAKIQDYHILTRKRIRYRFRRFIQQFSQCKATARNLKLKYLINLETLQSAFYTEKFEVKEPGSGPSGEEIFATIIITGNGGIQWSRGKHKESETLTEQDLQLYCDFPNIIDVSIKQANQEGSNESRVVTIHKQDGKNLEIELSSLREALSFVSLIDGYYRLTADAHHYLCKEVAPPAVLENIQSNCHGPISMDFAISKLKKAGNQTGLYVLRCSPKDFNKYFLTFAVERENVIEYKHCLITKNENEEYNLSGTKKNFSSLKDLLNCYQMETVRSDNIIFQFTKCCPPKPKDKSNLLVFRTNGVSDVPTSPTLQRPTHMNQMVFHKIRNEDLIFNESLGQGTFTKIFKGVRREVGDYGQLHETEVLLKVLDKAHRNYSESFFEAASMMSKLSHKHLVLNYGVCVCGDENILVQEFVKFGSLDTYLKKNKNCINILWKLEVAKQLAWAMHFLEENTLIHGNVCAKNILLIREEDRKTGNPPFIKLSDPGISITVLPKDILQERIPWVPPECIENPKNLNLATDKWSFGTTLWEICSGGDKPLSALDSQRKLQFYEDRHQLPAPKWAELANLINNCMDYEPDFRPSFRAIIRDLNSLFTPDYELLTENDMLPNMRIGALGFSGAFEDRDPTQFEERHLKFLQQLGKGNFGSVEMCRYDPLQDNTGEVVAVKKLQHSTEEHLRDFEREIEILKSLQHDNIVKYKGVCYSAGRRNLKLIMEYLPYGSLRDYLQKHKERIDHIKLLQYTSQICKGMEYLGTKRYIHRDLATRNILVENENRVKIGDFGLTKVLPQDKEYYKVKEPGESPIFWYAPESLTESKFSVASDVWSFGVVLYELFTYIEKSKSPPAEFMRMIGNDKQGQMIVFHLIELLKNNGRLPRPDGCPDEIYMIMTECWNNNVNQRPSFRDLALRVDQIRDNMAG

pIC50 (NCI-H3122)	pIC50 (HCC78)	pIC50 [1]	Structure (SMILES)	further results
4.36	4.16	< 5.00	CC(Oc1cccnc1Nc1cnn(C)c1)c1cccc(C(=O)NCc2ccc(F)cc2)c1 (stereo unspecified)	
5.03	< 4.00	< 5.00	Cc1ccc(CNC(=O)c2cccc(C(C)Oc3ccnc(Nc4nc5ccccc5[nH]4)c3)c2)cc1 (stereo unspecified)	pIC50 [2]: < 5.00
5.04	4.69	5.03	Cc1ccc(CNC(=O)c2cccc(C(C)Oc3cccnc3Nc3cnn(CC(C)(C)O)c3)c2)cc1 (stereo unspecified)	pIC50 [2]: < 5.00
< 4.00	4.17	< 5.00	Cc1ccc(CNC(=O)c2cccc(C(C)Oc3ccnc(NN4CCOCC4)c3)c2)cc1 (stereo unspecified)	
4.82	4.57	< 5.00	Cc1ccc(CNC(=O)c2cccc(C(C)Oc3cccnc3Nc3nccs3)c2)cc1 (stereo unspecified)	
4.41	4.12	6.19	COc1ccc(CNC(=O)c2cccc(C(C)Oc3ccnc(Nc4cnn(C)c4)c3)c2)cc1OC (stereo unspecified)	
4.54	4.13	6.39	COc1cc(CNC(=O)c2cccc(C(C)Oc3ccnc(Nc4cnn(C)c4)c3)c2)cc(OC)c1OC (stereo unspecified)	
4.31	4.10	< 5.00	COc1cccc(CNC(=O)c2cccc(C(C)Oc3cccnc3Nc3cnn(C)c3)c2)c1 (stereo unspecified)	
< 4.00	< 4.00	6.36	COc1ccc(CNC(=O)c2cccc(C(C)Oc3ccnc(Nc4ncccn4)c3)c2)cc1OC (stereo unspecified)	
5.11	4.80	5.62	COc1cc(Nc2cc(OC(C)c3cccc(C(=O)NCc4ccc(C)cc4)c3)ccn2)cc(OC)c1OC (stereo unspecified)	
5.09	4.58	< 5.00	Cc1ccc(CNC(=O)c2cccc(C(C)Oc3ccnc(NN4CCN(C)CC4)c3)c2)cc1 (stereo unspecified)	
5.11	5.05	5.74	Cc1ccc(CNC(=O)c2cccc(C(C)Oc3ccnc(Nc4cnn(C)c4)c3)c2)cc1 (stereo unspecified)	
5.10	5.14	5.64	CC(Oc1ccnc(Nc2cnn(C3CCN(C)CC3)c2)c1)c1cccc(C(=O)NCc2ccc(Cl)c(C(F)(F)F)c2)c1 (stereo unspecified)	
< 4.00	4.19	5.74	COc1cccc(CNC(=O)c2cccc(C(C)Oc3ccnc(Nc4cnn(C)c4)c3)c2)c1 (stereo unspecified)	

The remaining lines, values behind:

Structure (SMILES)	pIC50 (NCI-H3122)	pIC50 (HCC78)	pIC50 [1]	further results
Cc1ccc(CNC(=O)c2cccc(C(C)Oc3ccnc(Nc4cn(C)nc4C)c3)c2)cc1 (stereo unspecified)	4.87	4.76	5.85	
CC(Oc1cccnc1Nc1cnn(C)c1)c1cccc(C(=O)NCc2ccc(OC(F)(F)F)cc2)c1 (stereo unspecified)	5.08	4.13	< 5.00	
CC(Oc1cccnc1Nc1cnn(C)c1)c1cccc(C(=O)NCc2ccc(Cl)c(C(F)(F)F)c2)c1 (stereo unspecified)	4.29	4.31	5.20	
Cc1ccc(CNC(=O)c2cccc(C(C)Oc3cccnc3Nc3ncccn3)c2)cc1 (stereo unspecified)	< 4.00	< 4.00	5.21	pIC50 [2]: < 5.00
C[C@@H](Oc1cc(-c2cnn(C3CCNCC3)c2)cnc1N)c1c(Cl)ccc(F)c1Cl [CRIZOTINIB]	6.10	5.70		
Cc1ccc(CNC(=O)c2cccc(C(C)Oc3ccnc(Nc4cnn(C5CCN(C)CC5)c4)c3)c2)cc1 (stereo unspecified)	5.05	5.09	6.36	pIC50 [2]: 5.51; inhibition [3]: 9%; inhibition [4]: 1%; inhibition [5]: 3%; inhibition [6]: 8%; inhibition [7]: 6%; inhibition [8]: 11%; inhibition [9]: 9%; inhibition [10]: 2%; inhibition [11]: 7%; inhibition [12]: 1%; inhibition [13]: 15%; inhibition [14]: 12%
Cc1ccc(CNC(=O)c2cccc(C(C)Oc3cccnc3Nc3nncs3)c2)cc1 (stereo unspecified)	4.68	4.75	< 5.00	
COc1ccc(CNC(=O)c2cccc(C(C)Oc3ccnc(Nc4cnn(C5CCNCC5)c4)c3)c2)cc1OC (stereo unspecified)	4.33	4.19	6.43	pIC50 [2]: 5.35; inhibition [3]: 11%; inhibition [4]: 0%; inhibition [5]: 5%; inhibition [6]: 7%; inhibition [7]: 1%; inhibition [8]: 16%; inhibition [9]: 15%; inhibition [10]: 3%; inhibition [11]: 9%; inhibition [12]: 2%; inhibition [13]: 13%; inhibition [14]: 10%
Cc1ccc(CNC(=O)c2cccc(C(C)Oc3ccnc(NN4CCCCC4)c3)c2)cc1 (stereo unspecified)	4.43	4.61	< 5.00	
COc1ccc(CNC(=O)c2cccc(C(C)Oc3ccnc(Nc4cnn(C5CCN(C)CC5)c4)c3)c2)cc1OC (stereo unspecified)	4.83	5.05	6.24	
Cc1ccc(CNC(=O)c2cccc(C(C)Oc3cccnc3Nc3cnn(CC#N)c3)c2)cc1 (stereo unspecified)	4.42	4.24	5.06	pIC50 [2]: < 5.00
CC(Oc1ccnc(Nc2cnn(CC(C)(C)O)c2)c1)c1cccc(C(=O)NCc2ccc(Cl)c(C(F)(F)F)c2)c1 (stereo unspecified)	4.42	< 4.00	5.08	
CC(Oc1cccnc1Nc1cnn(C)c1)c1cccc(C(=O)NCc2ccccc2S(=O)(=O)C(C)C)c1 (stereo unspecified)	< 4.00	4.20	5.06	pIC50 [2]: < 5.00
CC(Oc1ccnc(Nc2cnn(C)c2)c1)c1cccc(C(=O)NCc2ccc(C#N)cc2)c1 (stereo unspecified)	4.45	5.06	5.82	
CC(Oc1ccnc(NN2CCN(C)CC2)c1)c1cccc(C(=O)NCc2ccc(Cl)c(C(F)(F)F)c2)c1 (stereo unspecified)	4.66	4.63	5.04	
Cc1cnc(Nc2ncccc2OC(C)c2cccc(C(=O)NCc3ccc(F)c(Cl)c3)c2)s1 (stereo unspecified)	5.09	4.46	5.02	
CC(Oc1ccnc(Nc2cnn(C)c2)c1)c1cccc(C(=O)NCc2cc(C(F)(F)F)cc(C(F)(F)F)c2)c1 (stereo unspecified)	4.61	5.03	5.13	pIC50 [2]: < 5.00
Cc1ccc(CNC(=O)c2cccc(C(C)Oc3cccnc3Nc3ncc(C)s3)c2)cc1 (stereo unspecified)	5.07	4.83	5.03	pIC50 [2]: < 5.00
Cc1ccc(CNC(=O)c2cccc(C(C)Oc3ccnc(Nc4cnn(CC(C)(C)O)c4)c3)c2)cc1 (stereo unspecified)	< 4.00	4.30	5.62	pIC50 [2]: < 5.00
CC(Oc1ccnc(Nc2cnn(C)c2)c1)c1cccc(C(=O)NCc2cc(F)cc(F)c2)c1 (stereo unspecified)	5.12	4.88	5.62	
CC(Oc1cccnc1Nc1cnn(C)c1)c1cccc(C(=O)NCc2ccc(F)c(Cl)c2)c1 (stereo unspecified)	4.45	5.11	< 5.00	
Cc1ccc(CNC(=O)c2cccc(C(C)Oc3cccnc3Nn3cnnc3)c2)cc1 (stereo unspecified)	4.63	5.03	< 5.00	
